Tests used:
Format in all cases: biochemical
[1] = target: T1, MAP2K1 (Homo sapiens, UniProt Q02750); assay: Z'-Lyte FRET kinase assay (Invitrogen), MAP2K1; details: read-out: IC50, activity toward kinase MAP2K1
T1 construct: purchased Invitrogen (assay run by Invitrogen)

[2] = target: T2, PKC theta (Homo sapiens, UniProt Q04759); assay: Z'-Lyte FRET kinase assay (Invitrogen), PKC theta; details: read-out: IC50, activity toward kinase PKC theta
T2 construct: purchased Invitrogen (Carlsbad, Calif.), screening service
Summary of the method: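 Each kinase phosphorylated a FRET peptide (2 μM) at 10 μM ATP in 50 mM HEPES pH 7.5, 50 mM MgCl2, 5 mM EGTA, 0.05% BRIJ-35 with 1% DMSO, 1 h at room temperature. After a 1 h protease development step, coumarin/fluorescein emission ratio was read across serial compound dilutions.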

[3] = target: T3, Flt4 (Homo sapiens, UniProt P35916); assay: AlphaScreen kinase assay, Flt4; details: read-out: IC50, activity toward kinase Flt4
T3 construct: purchased ProQinase GmbH (Freiburg, Germany)
Summary of the method: (§1)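 Biotinylated peptide substrate is phosphorylated by kinase; anti-phosphopeptide antibody on acceptor beads and streptavidin donor beads bring emission when substrate is phosphorylated. Inhibition lowers acceptor signal. Compounds from 20 mM DMSO stock tested as 8-point 1:3 serial dilutions.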

[4] = target: T4, Itk (Homo sapiens, UniProt Q08881); assay: AlphaScreen kinase assay, Itk; details: read-out: IC50, activity toward kinase Itk
T4 sequence (Q08881 1-620): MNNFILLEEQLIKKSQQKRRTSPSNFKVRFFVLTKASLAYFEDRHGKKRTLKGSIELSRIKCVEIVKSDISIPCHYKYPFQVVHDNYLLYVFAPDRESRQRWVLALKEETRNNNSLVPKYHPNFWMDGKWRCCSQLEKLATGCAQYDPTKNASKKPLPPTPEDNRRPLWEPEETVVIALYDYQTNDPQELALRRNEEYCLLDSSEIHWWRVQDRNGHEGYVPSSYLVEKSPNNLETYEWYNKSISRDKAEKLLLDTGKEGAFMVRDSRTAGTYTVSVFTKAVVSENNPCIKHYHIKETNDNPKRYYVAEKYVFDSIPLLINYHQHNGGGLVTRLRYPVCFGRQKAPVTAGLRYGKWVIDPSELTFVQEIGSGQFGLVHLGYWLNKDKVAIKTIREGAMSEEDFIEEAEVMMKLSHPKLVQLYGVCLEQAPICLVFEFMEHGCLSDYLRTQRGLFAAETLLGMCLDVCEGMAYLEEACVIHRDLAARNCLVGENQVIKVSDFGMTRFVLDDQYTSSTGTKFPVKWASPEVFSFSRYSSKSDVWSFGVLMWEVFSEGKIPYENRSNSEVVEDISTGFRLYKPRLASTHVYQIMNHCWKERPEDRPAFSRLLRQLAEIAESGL
Summary of the method: as §1

[5] = target: T5, Fak (Homo sapiens, UniProt Q05397); assay: AlphaScreen kinase assay, Fak; details: read-out: IC50, activity toward kinase Fak
T5 construct: P1358.pFastBacHtb FAK S411-Q686-X; His6 with pFastBacHTb leader (TEV site) (N); made in house; host or cells: Sf9 (baculovirus)

[6] = target: T6, Stk6 (Homo sapiens, UniProt O14965); assay: Z'-Lyte FRET kinase assay (Invitrogen), Stk6; details: read-out: IC50, activity toward kinase Stk6
T6 construct: purchased Invitrogen (Carlsbad, Calif.), screening service
T6 sequence (O14965 1-403): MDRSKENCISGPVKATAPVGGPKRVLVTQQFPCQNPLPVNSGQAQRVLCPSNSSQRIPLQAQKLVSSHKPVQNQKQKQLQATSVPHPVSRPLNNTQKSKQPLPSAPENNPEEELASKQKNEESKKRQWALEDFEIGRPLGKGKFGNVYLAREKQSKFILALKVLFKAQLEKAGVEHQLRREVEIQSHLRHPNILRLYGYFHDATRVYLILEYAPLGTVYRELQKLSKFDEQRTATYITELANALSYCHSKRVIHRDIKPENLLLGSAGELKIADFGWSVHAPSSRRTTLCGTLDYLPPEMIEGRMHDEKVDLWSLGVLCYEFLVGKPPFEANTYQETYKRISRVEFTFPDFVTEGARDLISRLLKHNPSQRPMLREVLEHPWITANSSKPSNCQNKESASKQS

Measured: IC50

T1 sequence (Q02750 whole entry): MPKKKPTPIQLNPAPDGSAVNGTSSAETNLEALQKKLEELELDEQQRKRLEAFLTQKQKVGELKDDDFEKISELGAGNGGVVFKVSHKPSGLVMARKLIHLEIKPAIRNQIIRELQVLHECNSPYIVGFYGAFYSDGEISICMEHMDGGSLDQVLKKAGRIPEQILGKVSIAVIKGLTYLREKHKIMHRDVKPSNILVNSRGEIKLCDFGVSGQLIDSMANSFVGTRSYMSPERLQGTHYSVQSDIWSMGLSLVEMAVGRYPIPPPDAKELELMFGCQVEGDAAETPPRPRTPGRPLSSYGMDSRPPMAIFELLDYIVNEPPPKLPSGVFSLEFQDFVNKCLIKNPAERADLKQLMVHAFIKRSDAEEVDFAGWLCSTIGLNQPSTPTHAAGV
T5 sequence (Q05397 411-686): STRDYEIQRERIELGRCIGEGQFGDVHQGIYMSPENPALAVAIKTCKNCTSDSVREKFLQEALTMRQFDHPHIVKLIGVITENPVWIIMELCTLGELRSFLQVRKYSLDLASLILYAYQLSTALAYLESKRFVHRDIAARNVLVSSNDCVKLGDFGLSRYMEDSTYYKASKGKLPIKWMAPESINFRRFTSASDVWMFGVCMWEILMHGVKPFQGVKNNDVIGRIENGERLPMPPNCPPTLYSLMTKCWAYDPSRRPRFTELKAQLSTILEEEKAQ
T3 sequence (P35916 25-1363): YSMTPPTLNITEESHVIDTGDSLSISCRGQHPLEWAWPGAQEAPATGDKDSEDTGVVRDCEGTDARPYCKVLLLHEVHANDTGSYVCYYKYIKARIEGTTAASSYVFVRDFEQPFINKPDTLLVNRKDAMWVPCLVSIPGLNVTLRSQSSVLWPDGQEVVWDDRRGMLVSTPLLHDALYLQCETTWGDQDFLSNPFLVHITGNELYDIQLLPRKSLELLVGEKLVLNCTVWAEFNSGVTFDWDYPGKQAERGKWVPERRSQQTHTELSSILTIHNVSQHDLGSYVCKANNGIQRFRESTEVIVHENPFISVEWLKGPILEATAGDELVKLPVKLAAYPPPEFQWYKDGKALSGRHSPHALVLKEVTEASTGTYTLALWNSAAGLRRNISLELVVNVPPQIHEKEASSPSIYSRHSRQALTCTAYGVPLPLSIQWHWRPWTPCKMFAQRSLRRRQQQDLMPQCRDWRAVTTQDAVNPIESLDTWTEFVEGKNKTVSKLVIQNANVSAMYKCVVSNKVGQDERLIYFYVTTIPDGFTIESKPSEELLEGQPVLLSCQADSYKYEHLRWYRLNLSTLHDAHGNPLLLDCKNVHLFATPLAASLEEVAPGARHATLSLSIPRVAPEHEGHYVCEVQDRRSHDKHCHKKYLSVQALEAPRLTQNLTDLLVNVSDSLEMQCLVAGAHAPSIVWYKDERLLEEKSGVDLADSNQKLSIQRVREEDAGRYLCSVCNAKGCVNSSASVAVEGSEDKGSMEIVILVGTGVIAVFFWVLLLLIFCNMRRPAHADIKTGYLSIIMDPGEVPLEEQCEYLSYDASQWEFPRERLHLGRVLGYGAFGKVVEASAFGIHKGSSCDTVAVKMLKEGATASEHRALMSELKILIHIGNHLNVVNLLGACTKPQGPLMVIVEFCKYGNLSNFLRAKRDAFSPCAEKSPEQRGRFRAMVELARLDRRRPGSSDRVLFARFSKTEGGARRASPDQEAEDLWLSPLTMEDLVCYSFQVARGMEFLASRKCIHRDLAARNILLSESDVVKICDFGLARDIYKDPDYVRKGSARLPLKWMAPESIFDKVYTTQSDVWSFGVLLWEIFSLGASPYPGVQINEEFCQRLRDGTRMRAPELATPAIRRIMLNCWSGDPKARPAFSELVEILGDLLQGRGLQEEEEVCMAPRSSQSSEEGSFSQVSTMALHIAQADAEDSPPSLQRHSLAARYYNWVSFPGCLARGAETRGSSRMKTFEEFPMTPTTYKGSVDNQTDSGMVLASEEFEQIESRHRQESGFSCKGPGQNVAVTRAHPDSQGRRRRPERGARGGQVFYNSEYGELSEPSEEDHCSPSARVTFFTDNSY
T2 sequence (Q04759 whole entry): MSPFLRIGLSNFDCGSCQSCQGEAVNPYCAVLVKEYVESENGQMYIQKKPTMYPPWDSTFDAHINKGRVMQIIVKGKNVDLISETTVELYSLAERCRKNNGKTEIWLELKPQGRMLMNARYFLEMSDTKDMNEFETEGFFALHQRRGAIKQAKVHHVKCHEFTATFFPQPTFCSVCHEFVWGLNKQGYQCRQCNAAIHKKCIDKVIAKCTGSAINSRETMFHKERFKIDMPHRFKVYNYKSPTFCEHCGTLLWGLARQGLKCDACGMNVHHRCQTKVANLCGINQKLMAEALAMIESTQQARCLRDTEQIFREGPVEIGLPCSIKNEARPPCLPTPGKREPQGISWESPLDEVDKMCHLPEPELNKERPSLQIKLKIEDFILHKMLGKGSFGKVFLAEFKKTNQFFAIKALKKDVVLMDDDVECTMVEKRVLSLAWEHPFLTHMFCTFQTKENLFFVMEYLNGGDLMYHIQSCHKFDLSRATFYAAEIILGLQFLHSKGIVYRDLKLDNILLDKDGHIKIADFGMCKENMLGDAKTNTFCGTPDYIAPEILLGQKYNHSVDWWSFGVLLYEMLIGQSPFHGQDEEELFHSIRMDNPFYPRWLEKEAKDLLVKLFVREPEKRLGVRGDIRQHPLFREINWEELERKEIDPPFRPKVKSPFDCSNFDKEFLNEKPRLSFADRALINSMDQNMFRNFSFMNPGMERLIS

Nc1cccc(-c2cnc3[nH]cc(C(=O)c4cccc(O)c4)c3c2)c1 [Compound P-0003]
≤ 10 µM: all assays above

O=C(c1cccc(O)c1F)c1c[nH]c2ncc(Br)cc12 [Compound P-0067, (5-bromo-1H-pyrrolo[2,3-b]pyridin-3-yl)-(2-fluoro-3-hydroxy-phenyl)-methanone]
≤ 10 µM: [4] | [5]

O=C(c1cccc(O)c1)c1c[nH]c2ncc(-c3cccs3)cc12 [Compound P-0196]
≤ 10 µM: [3] | [4] | [5]

Nc1cccc(-c2cnc3[nH]cc(C(=O)c4cc(O)ccc4F)c3c2)c1 [Compound P-0002]
not listed: [3]
≤ 10 µM: all other assays above

O=C(c1cccc(O)c1F)c1c[nH]c2ncc(-c3ccccc3)cc12 [Compound P-0036, (2-fluoro-3-hydroxy-phenyl)-(5-phenyl-1H-pyrrolo[2,3-b]pyridin-3-yl)-methanone]
≤ 10 µM: [4] | [5]

Nc1cccc(-c2cnc3[nH]cc(C(=O)c4cccc(O)c4F)c3c2)c1 [Compound P-0004, [5-(3-amino-phenyl)-1H-pyrrolo[2,3-b]pyridin-3-yl]-(2-fluoro-3-hydroxy-phenyl)methanone]
≤ 10 µM: [2] | [4] | [5]

O=C(c1cccc(O)c1F)c1c[nH]c2ncc(-c3cccnc3)cc12 [Compound P-0027, (2-Fluoro-3-hydroxy-phenyl)-(5-pyridin-3-yl-1H-pyrrolo[2,3-b]pyridin-3-yl)-methanone]
≤ 10 µM: [4] | [5]

O=C(c1cccc(O)c1)c1c[nH]c2ncc(Br)cc12 [Compound P-0019]
≤ 10 µM: [2] | [3] | [4]

Oc1ccc(F)c(C(O)c2c[nH]c3ncc(-c4cccnc4)cc23)c1F (stereo not drawn) [Compound P-0009, 2,4-difluoro-3-[hydroxy-(5-pyridin-3-yl-1H-pyrrolo[2,3-b]pyridin-3-yl)-methyl]-phenol]
≤ 10 µM: [4] | [5] | [6]

Cc1c(O)cccc1C(=O)c1c[nH]c2ncc(-c3cccnc3)cc12 [Compound P-0006, (3-Hydroxy-2-methyl-phenyl)-(5-pyridin-3-yl-1H-pyrrolo[2,3b]pyridin-3-yl)-methanone]
≤ 10 µM: [1] | [2] | [4] | [5]

Cc1c(O)cccc1C(=O)c1c[nH]c2ncc(-c3ccccc3)cc12 [Compound P-0016, (3-Hydroxy-2-methyl-phenyl)-(5-phenyl-1H-pyrrolo[2,3b]pyridin-3-yl)-methanone]
≤ 10 µM: [4] | [5]

O=C(c1cccc(O)c1F)c1c[nH]c2ncc(-c3cccs3)cc12 [Compound P-0521, (2-fluoro-3-hydroxy-phenyl)-(5-thiophen-2-yl-1H-pyrrolo[2,3-b]pyridin-3-yl)-methanone]
≤ 10 µM: [3] | [4]

O=C(c1ccc(O)cc1)c1c[nH]c2ncc(-c3cccs3)cc12 [Compound P-0024, (4-Hydroxy-phenyl)-(5-thiophen-2-yl-1H-pyrrolo[2,3-b]pyridin-3-yl)-methanone]
≤ 10 µM: [2] | [3] | [4] | [5]

NC(=O)c1ccc(-c2ccnc3[nH]cc(C(=O)c4cc(F)ccc4F)c23)cc1 [Compound P-0013]
≤ 10 µM: [2] | [4] | [6]

CS(=O)(=O)c1cccc(-c2cnc3[nH]cc(C(=O)c4cc(O)ccc4F)c3c2)c1 [Compound P-0008, (2-Fluoro-5-hydroxy-phenyl)-[5-(3-methanesulfonyl-phenyl)-1H-pyrrolo[2,3-b]pyridin-3-yl]-methanone]
not listed: [3]
≤ 10 µM: all other assays above

CC(=O)Nc1cccc(-c2cnc3[nH]cc(C(=O)c4cccc(O)c4F)c3c2)c1 [Compound P-0035, N-{3-[3-(2-Fluoro-3-hydroxy-benzoyl)-1H-pyrrolo[2,3-b]pyridin-5-yl]-phenyl}-acetamide]
≤ 10 µM: [4] | [5] | [6]

CS(=O)(=O)c1cccc(-c2cnc3[nH]cc(C(O)c4c(F)ccc(F)c4F)c3c2)c1 (stereo not drawn) [Compound P-0020]
≤ 10 µM: [2] | [4] | [6]

CC(=O)Nc1cccc(-c2cnc3[nH]cc(C(=O)c4cc(O)ccc4F)c3c2)c1 [Compound P-0001]
not listed: [4]
≤ 10 µM: all other assays above

CS(=O)(=O)Nc1cccc(-c2cnc3[nH]cc(C(=O)c4cccc(O)c4F)c3c2)c1 [Compound P-0038, N-{3-[3-(2-Fluoro-3-hydroxy-benzoyl)-1H-pyrrolo[2,3-b]pyridin-5-yl]-phenyl}-methanesulfonamide]
≤ 10 µM: [4]

O=C(c1cccc(O)c1)c1c[nH]c2ncc(Nc3ccccc3)cc12 [Compound P-0025]
≤ 10 µM: [2] | [4] | [5]

NC(=O)c1cccc(-c2cnc3[nH]cc(C(=O)c4cccc(O)c4F)c3c2)c1 [Compound P-0034, 3-[3-(2-Fluoro-3-hydroxy-benzoyl)-1H-pyrrolo[2,3-b]pyridin-5-yl]benzamide]
≤ 10 µM: [4] | [5]
